The source of these data is US20030190325A1, “Novel peroxiredoxin defense system from mycobacterium tuberculosis” (priority 2002, published 2003).

As usually defined, the Ki is a dissociation constant, usually derived from enzyme kinetics or from competition with a known ligand.

The target in series [1] is T1, SucB (Mycobacterium tuberculosis, UniProt P9WIS7).
T1 construct: Lpd and SucB ORFs were amplified by PCR from M. tuberculosis H37Rv genomic DNA; made in house; host or cells: E. coli BL21(DE3), pET11c, culture supplemented with lipoic acid
T1 sequence (P9WIS7 1-553): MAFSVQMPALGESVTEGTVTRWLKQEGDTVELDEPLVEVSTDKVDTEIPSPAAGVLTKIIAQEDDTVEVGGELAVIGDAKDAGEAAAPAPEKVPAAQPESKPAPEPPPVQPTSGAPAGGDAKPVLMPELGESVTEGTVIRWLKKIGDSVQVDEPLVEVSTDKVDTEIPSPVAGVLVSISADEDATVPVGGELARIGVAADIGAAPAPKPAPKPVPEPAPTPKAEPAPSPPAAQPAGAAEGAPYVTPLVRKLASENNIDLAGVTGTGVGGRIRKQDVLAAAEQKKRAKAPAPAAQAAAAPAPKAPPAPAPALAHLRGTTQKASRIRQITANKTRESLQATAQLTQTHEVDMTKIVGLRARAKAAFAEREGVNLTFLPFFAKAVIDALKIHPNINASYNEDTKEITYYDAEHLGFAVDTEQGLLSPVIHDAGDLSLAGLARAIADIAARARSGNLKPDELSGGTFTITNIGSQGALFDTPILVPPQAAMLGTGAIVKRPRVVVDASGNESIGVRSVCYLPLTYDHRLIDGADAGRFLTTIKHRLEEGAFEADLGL
Description: Inhibition constant for the enzyme identified as target: SucB. In kind it is biochemical. The source says:
Table 2 lists the molecular structures of eleven chemical compounds that were identified from the above screen. The first three compounds in Table 2 were further identified as to which of the 3 enzymes (AhpD, Lpd, SucB) each inhibited.

Series [2] addresses T2, Lpd (porcine) (Sus scrofa, UniProt P09623).
T2 sequence (P09623 36-509): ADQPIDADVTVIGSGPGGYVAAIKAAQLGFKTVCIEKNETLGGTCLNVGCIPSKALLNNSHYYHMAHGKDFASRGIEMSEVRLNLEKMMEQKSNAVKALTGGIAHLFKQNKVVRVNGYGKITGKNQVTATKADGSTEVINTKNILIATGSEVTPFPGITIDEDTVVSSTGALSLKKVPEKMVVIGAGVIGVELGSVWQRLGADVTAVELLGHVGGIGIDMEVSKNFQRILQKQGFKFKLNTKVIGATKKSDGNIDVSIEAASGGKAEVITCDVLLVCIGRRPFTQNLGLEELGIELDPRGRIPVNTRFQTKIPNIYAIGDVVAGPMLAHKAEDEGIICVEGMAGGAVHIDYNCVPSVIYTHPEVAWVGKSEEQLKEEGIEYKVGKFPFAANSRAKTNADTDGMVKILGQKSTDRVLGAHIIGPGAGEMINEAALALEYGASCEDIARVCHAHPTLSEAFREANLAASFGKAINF
Description: Counter-test on porcine Lpd. More on the design: key: “NE” means no effect. The series is classed as biochemical. Conditions: at 10 μM.

Series [3] has as its system αKG-DH (porcine). Put plainly: Counter-test on porcine αKG-DH. The series is classed as biochemical. Conditions: at 50 μM. More on the design: key to αKG-DH (porcine): “NE” means no effect.
Series [4] has as its system TR (bovine). Description: Counter-test on bovine TR. The series is classed as biochemical. More on the design: key: “NE” means no effect. Conditions: at 10 μM.
Series [5] concerns mouse macrophages.
Series [6] deals with the molecule itself. Description: X-ray crystal structure at 2.0 Å, homotrimer.

In the case of `O=C(O)CCN1C(=O)/C(=C\c2ccc(-c3cccc(C(F)(F)F)c3)o2)SC1=S` [2556-0286], the affinity in series [1], expressed as Ki, was 3 µM. In addition, the “Lpd (porcine)” value in series [2] was “NE at 10 μM”. The “αKG-DH (porcine)” value in series [3] is “NE at 50 μM”. Further, the “TR (bovine)” value in series [4] was “NE at 10 μM”. Further, the “Macs Viabil. (50 μM)” value in series [5] was 80% ±1%.
Consider `O=C(O)CN1C(=O)/C(=C\c2ccc(-c3cccc(Cl)c3Cl)o2)SC1=S` [3229-2113], for which the Ki in series [1] was found to be 6 µM. Further, the “Lpd (porcine)” value in series [2] was “NE at 10 μM”. The “αKG-DH (porcine)” value in series [3] is “NE at 50 μM”. Moreover, in series [4], the “TR (bovine)” value is listed as “NE at 10 μM”. In addition, the “Macs Viabil. (50 μM)” value in series [5] is listed as 91% ±5%.
Take `Cc1cc(C)cc(/N=C2/NC(=O)/C(=C\c3cc(Br)c(O)c([N+](=O)O)c3)S2)c1` [2368-0687]: in series [2], the “Lpd (porcine)” value is on record as “NE at 10 µM”. In series [3], the “αKG-DH (porcine) inhibition” value is listed as 5-10% inhi- bition at 50 μM. Besides, in series [4], the “TR (bovine)” value is recorded as “NE at 10 μM”. Further, the “Macs Viabil. (50 μM)” value in series [5] is 70% ±13% *clu- sters.

B1: AhpD (protein encoded by the ahpD gene, Rv2429, of Mycobacterium tuberculosis) (enzyme)
chain: MSIEKLKAALPEYAKDIKLNLSSITRSSVLDQEQLWGTLLASAAATRNPQVLADIGAEATDHLSAAARHAALGAAAIMGMNNVFYRGRGFLEGRYDDLRPGLRMNIIANPGIPKANFELWSFAVSAINGCSHCLVAHEHTLRTVGVDREAIFEALKAAAIVSGVAQALATIEALSPS
notes: Homotrimer in the crystal; also called recombinant AhpD
Consider B1, for which, in series [6], the binding result was “binds”.
